Experimental data taken from patent US9469650B2, “Melampomagnolide B derivatives” (BOARD OF TRUSTEES OF THE UNIVERSITY OF ARKANSAS, priority 2013, dated 2016).

How the values were obtained:
KM12 = assay: panel of 60 human tumor cell lines, growth inhibition (Colon Cancer); details: KM12
PC-3 = assay: panel of 60 human tumor cell lines, growth inhibition (Prostate Cancer); details: PC-3
NCI-H322M = assay: panel of 60 human tumor cell lines, growth inhibition (Non-Small Cell Lung Cancer)
SK-MEL-2 = assay: panel of 60 human tumor cell lines, growth inhibition (Melanoma); details: SK-MEL-2
786-0 = assay: panel of 60 human tumor cell lines, growth inhibition (Renal Cancer); details: 786-0
HT29 = assay: panel of 60 human tumor cell lines, growth inhibition (Colon Cancer); details: HT29
MDA-MB-231/ATCC = assay: panel of 60 human tumor cell lines, growth inhibition (Breast Cancer); details: MDA-MB-231/ATCC
NCI-H460 = assay: panel of 60 human tumor cell lines, growth inhibition (Non-Small Cell Lung Cancer); details: NCI-H460
NCI/ADR-RES = assay: panel of 60 human tumor cell lines, growth inhibition (Ovarian Cancer)
HOP-62 = assay: panel of 60 human tumor cell lines, growth inhibition (Non-Small Cell Lung Cancer); details: HOP-62
MDA-MB-435 = assay: panel of 60 human tumor cell lines, growth inhibition (Melanoma); details: MDA-MB-435
U251 = assay: panel of 60 human tumor cell lines, growth inhibition (CNS Cancer); details: U251
HCT-116 = assay: panel of 60 human tumor cell lines, growth inhibition (Colon Cancer); details: HCT-116
SN12C = assay: panel of 60 human tumor cell lines, growth inhibition (Renal Cancer)
OVCAR-5 = assay: panel of 60 human tumor cell lines, growth inhibition (Ovarian Cancer); details: OVCAR-5
A498 = assay: panel of 60 human tumor cell lines, growth inhibition (Renal Cancer); details: A498
SF-539 = assay: panel of 60 human tumor cell lines, growth inhibition (CNS Cancer); details: SF-539
DU-145 = assay: panel of 60 human tumor cell lines, growth inhibition (Prostate Cancer); details: DU-145

In the case of C=C1C(=O)O[C@H]2[C@H]1CC/C(COC(=O)NC)=C\CC[C@@]1(C)O[C@@H]21 [JVM 2-57], the “Percent Growth” value (KM12; Log10 Concentration −4.0) is reported as −92%, the “Percent Growth” value (KM12; Log10 Concentration −5.0) is reported as 73% and the “Percent Growth” value (KM12; Log10 Concentration −6.0) is reported as 99%. For the same molecule, the “Percent Growth” value (KM12; Log10 Concentration −7.0) was 97%, the “Percent Growth” value (KM12; Log10 Concentration −8.0) was 98% and the GI50 (KM12; NCI five dose) was 13.8 µM. The TGI (KM12; NCI five dose) was 2.78E−5, the “Percent Growth” value (PC-3; Log10 Concentration −4.0) was −70% and the “Percent Growth” value (PC-3; Log10 Concentration −5.0) was 67%. For the same molecule, the “Percent Growth” value (PC-3; Log10 Concentration −6.0) was 96%, the “Percent Growth” value (PC-3; Log10 Concentration −7.0) was 97% and the “Percent Growth” value (PC-3; Log10 Concentration −8.0) was 98%. For the same molecule, the GI50 (PC-3; NCI five dose) was 13.3 µM, the TGI (PC-3; NCI five dose) was 3.08E−5 and the “Percent Growth” value (NCI-H322M; Log10 Concentration −4.0) was −17%. The “Percent Growth” value (NCI-H322M; Log10 Concentration −5.0) was 78%, the “Percent Growth” value (NCI-H322M; Log10 Concentration −6.0) was 97% and the “Percent Growth” value (NCI-H322M; Log10 Concentration −7.0) was 94%. The “Percent Growth” value (NCI-H322M; Log10 Concentration −8.0) was 98%, the GI50 (NCI-H322M; NCI five dose) was 19.7 µM and the TGI (NCI-H322M; NCI five dose) was 6.62E−5. For the same molecule, the “Percent Growth” value (SK-MEL-2; Log10 Concentration −4.0) was −70%, the “Percent Growth” value (SK-MEL-2; Log10 Concentration −5.0) was 53% and the “Percent Growth” value (SK-MEL-2; Log10 Concentration −6.0) was 99%. For the same molecule, the “Percent Growth” value (SK-MEL-2; Log10 Concentration −7.0) was 99%, the “Percent Growth” value (SK-MEL-2; Log10 Concentration −8.0) was 96% and the GI50 (SK-MEL-2; NCI five dose) was 10.5 µM. The TGI (SK-MEL-2; NCI five dose) was 2.69E−5, the “Percent Growth” value (786-0; Log10 Concentration −4.0) was −88% and the “Percent Growth” value (786-0; Log10 Concentration −5.0) was 38%. For the same molecule, the “Percent Growth” value (786-0; Log10 Concentration −6.0) was 93%, the “Percent Growth” value (786-0; Log10 Concentration −7.0) was 90% and the “Percent Growth” value (786-0; Log10 Concentration −8.0) was 96%. The GI50 (786-0; NCI five dose) was 5.94 µM, the TGI (786-0; NCI five dose) was 1.99E−5 and the “Percent Growth” value (HT29; Log10 Concentration −4.0) was −73%. The “Percent Growth” value (HT29; Log10 Concentration −5.0) was 21%, the “Percent Growth” value (HT29; Log10 Concentration −6.0) was 104% and the “Percent Growth” value (HT29; Log10 Concentration −7.0) was 96%. For the same molecule, the “Percent Growth” value (HT29; Log10 Concentration −8.0) was 101%, the GI50 (HT29; NCI five dose) was 4.5 µM and the TGI (HT29; NCI five dose) was 1.68E−5. For the same molecule, the “Percent Growth” value (MDA-MB-231/ATCC; Log10 Concentration −4.0) was −77%, the “Percent Growth” value (MDA-MB-231/ATCC; Log10 Concentration −5.0) was 31% and the “Percent Growth” value (MDA-MB-231/ATCC; Log10 Concentration −6.0) was 86%. For the same molecule, the “Percent Growth” value (MDA-MB-231/ATCC; Log10 Concentration −7.0) was 89%, the “Percent Growth” value (MDA-MB-231/ATCC; Log10 Concentration −8.0) was 106% and the GI50 (MDA-MB-231/ATCC; NCI five dose) was 4.48 µM. For the same molecule, the TGI (MDA-MB-231/ATCC; NCI five dose) was 1.93E−5, the “Percent Growth” value (NCI-H460; Log10 Concentration −4.0) was −65% and the “Percent Growth” value (NCI-H460; Log10 Concentration −5.0) was 78%. For the same molecule, the “Percent Growth” value (NCI-H460; Log10 Concentration −6.0) was 101%, the “Percent Growth” value (NCI-H460; Log10 Concentration −7.0) was 103% and the “Percent Growth” value (NCI-H460; Log10 Concentration −8.0) was 103%. For the same molecule, the GI50 (NCI-H460; NCI five dose) was 15.6 µM, the TGI (NCI-H460; NCI five dose) was 3.49E−5 and the “Percent Growth” value (NCI/ADR-RES; Log10 Concentration −4.0) was −27%. For the same molecule, the “Percent Growth” value (NCI/ADR-RES; Log10 Concentration −5.0) was 60%, the “Percent Growth” value (NCI/ADR-RES; Log10 Concentration −6.0) was 99% and the “Percent Growth” value (NCI/ADR-RES; Log10 Concentration −7.0) was 101%. For the same molecule, the “Percent Growth” value (NCI/ADR-RES; Log10 Concentration −8.0) was 95%, the GI50 (NCI/ADR-RES; NCI five dose) was 13.1 µM and the TGI (NCI/ADR-RES; NCI five dose) was 4.89E−5. For the same molecule, the “Percent Growth” value (HOP-62; Log10 Concentration −4.0) was −86%, the “Percent Growth” value (HOP-62; Log10 Concentration −5.0) was 72% and the “Percent Growth” value (HOP-62; Log10 Concentration −6.0) was 92%. The “Percent Growth” value (HOP-62; Log10 Concentration −7.0) was 86%, the “Percent Growth” value (HOP-62; Log10 Concentration −8.0) was 95% and the GI50 (HOP-62; NCI five dose) was 13.9 µM. The TGI (HOP-62; NCI five dose) was 2.87E−5, the “Percent Growth” value (MDA-MB-435; Log10 Concentration −4.0) was −81% and the “Percent Growth” value (MDA-MB-435; Log10 Concentration −5.0) was 32%. The “Percent Growth” value (MDA-MB-435; Log10 Concentration −6.0) was 91%, the “Percent Growth” value (MDA-MB-435; Log10 Concentration −7.0) was 93% and the “Percent Growth” value (MDA-MB-435; Log10 Concentration −8.0) was 99%. The GI50 (MDA-MB-435; NCI five dose) was 5.01 µM, the TGI (MDA-MB-435; NCI five dose) was 1.92E−5 and the “Percent Growth” value (U251; Log10 Concentration −4.0) was −100%. The “Percent Growth” value (U251; Log10 Concentration −5.0) was 81%, the “Percent Growth” value (U251; Log10 Concentration −6.0) was 92% and the “Percent Growth” value (U251; Log10 Concentration −7.0) was 97%. The “Percent Growth” value (U251; Log10 Concentration −8.0) was 99%, the GI50 (U251; NCI five dose) was 14.9 µM and the TGI (U251; NCI five dose) was 2.81E−5. The “Percent Growth” value (HCT-116; Log10 Concentration −4.0) was −98%, the “Percent Growth” value (HCT-116; Log10 Concentration −5.0) was 3% and the “Percent Growth” value (HCT-116; Log10 Concentration −6.0) was 88%. The “Percent Growth” value (HCT-116; Log10 Concentration −7.0) was 93%, the “Percent Growth” value (HCT-116; Log10 Concentration −8.0) was 102% and the GI50 (HCT-116; NCI five dose) was 2.8 µM. The TGI (HCT-116; NCI five dose) was 1.07E−5, the “Percent Growth” value (SN12C; Log10 Concentration −4.0) was −59% and the “Percent Growth” value (SN12C; Log10 Concentration −5.0) was 28%. The “Percent Growth” value (SN12C; Log10 Concentration −6.0) was 93%, the “Percent Growth” value (SN12C; Log10 Concentration −7.0) was 97% and the “Percent Growth” value (SN12C; Log10 Concentration −8.0) was 96%. For the same molecule, the GI50 (SN12C; NCI five dose) was 4.57 µM, the TGI (SN12C; NCI five dose) was 2.09E−5 and the “Percent Growth” value (OVCAR-5; Log10 Concentration −4.0) was −90%. The “Percent Growth” value (OVCAR-5; Log10 Concentration −5.0) was 24%, the “Percent Growth” value (OVCAR-5; Log10 Concentration −6.0) was 86% and the “Percent Growth” value (OVCAR-5; Log10 Concentration −7.0) was 84%. The “Percent Growth” value (OVCAR-5; Log10 Concentration −8.0) was 93%, the GI50 (OVCAR-5; NCI five dose) was 3.82 µM and the TGI (OVCAR-5; NCI five dose) was 1.62E−5. For the same molecule, the “Percent Growth” value (A498; Log10 Concentration −4.0) was −90%, the “Percent Growth” value (A498; Log10 Concentration −5.0) was 32% and the “Percent Growth” value (A498; Log10 Concentration −6.0) was 66%. The “Percent Growth” value (A498; Log10 Concentration −7.0) was 70%, the “Percent Growth” value (A498; Log10 Concentration −8.0) was 71% and the GI50 (A498; NCI five dose) was 2.97 µM. The TGI (A498; NCI five dose) was 1.84E−5, the “Percent Growth” value (SF-539; Log10 Concentration −4.0) was −92% and the “Percent Growth” value (SF-539; Log10 Concentration −5.0) was 22%. The “Percent Growth” value (SF-539; Log10 Concentration −6.0) was 88%, the “Percent Growth” value (SF-539; Log10 Concentration −7.0) was 91% and the “Percent Growth” value (SF-539; Log10 Concentration −8.0) was 97%. For the same molecule, the GI50 (SF-539; NCI five dose) was 3.8 µM, the TGI (SF-539; NCI five dose) was 1.57E−5 and the “Percent Growth” value (DU-145; Log10 Concentration −4.0) was −97%. The “Percent Growth” value (DU-145; Log10 Concentration −5.0) was 19%, the “Percent Growth” value (DU-145; Log10 Concentration −6.0) was 93% and the “Percent Growth” value (DU-145; Log10 Concentration −7.0) was 103%. For the same molecule, the “Percent Growth” value (DU-145; Log10 Concentration −8.0) was 104%, the GI50 (DU-145; NCI five dose) was 3.78 µM and the TGI (DU-145; NCI five dose) was 1.45E−5.
